Source: US10966995B2, “Use of secoisolariciresinol diglucosides (SDGS) and related compounds for protection against radiation and chemical damage” (THE TRUSTEES OF THE UNIVERSITY OF PENNSYLVANIA, priority 2014, dated 2021)

What was measured:
[1] = Hypochlorite scavenging with APF/HPF fluorescent probes (sodium hypochlorite); conditions: commercially available SDG; FIG. 15B
Procedure: The fluorescence of ROS probes APF and HPF in PBS was measured at excitation/emission at 490 nm/515 nm in presence of hypochlorite or after γ-radiation exposure. Data is expressed as relative fluorescence units (RFU).

[2] = SDG pharmacokinetic study after oral gavage (plasma and lung); type: in vivo, mouse
Procedure: After selecting the 100 mg/kg dose as a dose that induces significant AOE expression while allowing for SDG to be detected in circulation, a pharmacokinetic study was performed to determine bioavailability and biological effects in target tissues (i.e., lung). Blood samples as well as tissues (lung, brain, liver, kidneys, spleen) were collected at 15 min, 30 min, and 1, 2, 4, 6, 8, 12 hours. SDG levels were determined as above in plasma and lung (FIGS. 41A-C). A single dose of 100 mg SDG/Kg was well absorbed and intact SDG was detectable in the circulation up to 6 hours post administration (FIG. 41A) and in flushed, blood-free lung tissues for 4 hours (FIG. 41B). […] The observed gene expression increase correlated with an increase in protein levels determined by western blotting (not shown). […] The use of SDG in human therapy is thus greatly facilitated and the toxicity risk is unlikely. Therefore a dose of 50-100 mg/Kg (1 or 2 mg SDG per day) is sufficient to induce the anticipated protective effects in target tissues and can be used for further study.

[3] = 100 mg SDG/Kg oral, 30 minutes post-administration

**Q.** What does the source list for COc1cc(C[C@@H](CO[C@@H]2O[C@H](CO)[C@@H](O)[C@H](O)[C@H]2O)[C@H](CO[C@@H]2O[C@H](CO)[C@@H](O)[C@H](O)[C@H]2O)Cc2ccc(O)c(OC)c2)ccc1O [SDG, secoisolariciresinol diglucoside]?
**A.** ClO^− scavenging [1]: decreased ClO^− dose-dependently; Time SDG detectable in flushed, blood-free lung tissues ([2]; 100 mg SDG/Kg oral): 4 h; Time intact SDG detectable in the circulation post administration ([2]; 100 mg SDG/Kg oral): up to 6 hours; Lung tissue concentration of SDG [2, 3]: 12.6 µM; Plasma concentration of SDG [2, 3]: 800 nM; Absorption ([2]; single dose of 100 mg SDG/Kg, oral gavage): well absorbed
